Test results reported in article PMC11304236, “A Novel Drug Candidate for Sepsis Targeting Heparanase by Inhibiting Cytokine Storm” (Advanced Science, 2024).

Columns and labels:
LPS-induced septic mice = assay: LPS-induced sepsis mouse model, survival; format: in vivo; conditions: 40 mg kg−1 s.c. 30 min after LPS 40 mg kg−1 i.p.; 80 h or longer observation; LPS group 0%
Experimental: For LPS‐induced sepsis model experiments, 25 male C57BL/6J mice, 6–8 weeks old, weighing 20–25 g, were randomly divided into five groups (n = 5 in each group), and survival was examined. The abdominal cavity was injected with 40 mg kg^−1 LPS to induce sepsis. 30 min later, mice in group 1 were injected subcutaneously with 0.9% NaCl, mice in groups 2–4 were injected subcutaneously with CV122 (20 mg kg^−1), CV122 (30 mg kg^−1), and CV122 (40 mg kg^−1), respectively, and mice in group 5 were injected subcutaneously with Suramin (40 mg kg^−1). The status of the mice was observed and recorded every day.

TNF-α, IL-6, IL-1β = assay: Cytokine ELISA in serum and organs of LPS-induced septic mice; format: in vivo, mouse; conditions: 40 mg kg−1, 30 min after LPS 20 mg kg−1 i.p.; 3 h after LPS; vs LPS group
Experimental: For LPS‐induced sepsis model experiments, twenty male C57BL/6J mice were randomly divided into four groups (n = 5 in each group). Mice in group 1 were injected with 0.9% NaCl, while mice in groups 2–4 were injected intraperitoneally with LPS (20 mg kg^−1). After 30 min, mice in group 3 were injected with 40 mg kg^−1 CV122 and mice in group 4 were injected with 40 mg kg^−1 Suramin. After 3 h, blood was taken and the lungs, liver, spleen, kidney heart, and brain were taken. For CLP experiments, the mice were euthanized 24 h after the establishment of the sepsis model. Blood samples were collected from the eyeballs of mice, the lungs were taken. These organs were ground at 0.1 g mL^−1 in PBS, centrifuged and the supernatant collected. Serum and organ tissue supernatants were used to detect cytokine levels using the mouse TNF‐α, IL‐6, IL‐1β ELISA MAXTM Deluxe Set.

HUVECs = assay: Cell survival assay (CCK-8) in HUVECs; format: cell-based, human

## Cc1ccc(C(=O)Nc2ccc(S(=O)(=O)O)c3cc(S(=O)(=O)O)cc(S(=O)(=O)O)c23)cc1NC(=O)c1cccc(NC(=O)Nc2cccc(C(=O)Nc3cc(C(=O)Nc4ccc(S(=O)(=O)O)c5cc(S(=O)(=O)O)cc(S(=O)(=O)O)c45)ccc3C)c2)c1 [Suramin, reference compound]
LPS-induced septic mice
  survival rate: 60%
TNF-α, IL-6, IL-1β
  TNF-α, IL-6 and IL-1β levels in serum and lungs: suppress the cytokine release but to a lesser extent
HUVECs; 100 µM, *p < 0.05
  effect on survival of HUVECs: significant inhibitory effect
HUVECs; 200 µM, **p < 0.01
  effect on survival of HUVECs: significant inhibitory effect
